The source of these data is ChEMBL document CHEMBL1126983, “Catalytic functionalization of polymers: a novel approach to site specific delivery of misoprostol to the stomach” (1993).

Experiment [1] is filed under the species Rattus norvegicus. The experiment is described as follows: Compound was tested for mucosal protective activity in rats using 4 hr EtOH model. Type of experiment: functional.
Experiment [2] has as its system Rattus norvegicus. The experiment is described as follows: Compound was tested for diarrheagenic activity in rats after intragastric administration (I.G). Type of experiment: functional.
The subject of experiment [3] is Rattus norvegicus. The experiment is described as follows: Compound was tested for diarrheagenic activity in rats after intrajejuna administration (I.J). Type of experiment: functional.
Experiment [4] is filed under the species Rattus norvegicus. The experiment is described as follows: Compound was tested for mucosal protective activity against indomethacin-induced intestinal damage in rats. The experiment is classed as functional.
The species named for experiment [5] is Rattus norvegicus. Nature of the experiment: Compound was tested for mucosal protective activity against indomethacin-induced gastric damage in rats. Type of experiment: functional, Stomach.
Experiment [6] relates to Rattus norvegicus. Nature of the experiment: Compound was tested for diarrheagenic activity in rats after intracolonic administration (I.C). The experiment is classed as functional.

With `CCCCC(C)(O)C/C=C/[C@H]1[C@H](O)CC(=O)[C@@H]1CCCCCCC(=O)OC` (stereo partly specified) [MISOPROSTOL], the ED50 in experiment [1] is recorded as 525 (ug of misoprostol) kg-1; in experiment [2], 265 (ug of misoprostol) kg-1; in experiment [3] it was 534 (ug of misoprostol) kg-1; in experiment [4] it was 294 (ug of misoprostol) kg-1; in experiment [5], 14 (ug of misoprostol) kg-1; in experiment [6] it was 97 (ug of misoprostol) kg-1.
